Target: T1, TbPLK^as (analogue-sensitive Trypanosoma brucei Polo-like kinase) (Trypanosoma brucei, UniProt Q57VI0, C57V/L118G)
T1 sequence (Q57VI0 1-768 C57V/L118G): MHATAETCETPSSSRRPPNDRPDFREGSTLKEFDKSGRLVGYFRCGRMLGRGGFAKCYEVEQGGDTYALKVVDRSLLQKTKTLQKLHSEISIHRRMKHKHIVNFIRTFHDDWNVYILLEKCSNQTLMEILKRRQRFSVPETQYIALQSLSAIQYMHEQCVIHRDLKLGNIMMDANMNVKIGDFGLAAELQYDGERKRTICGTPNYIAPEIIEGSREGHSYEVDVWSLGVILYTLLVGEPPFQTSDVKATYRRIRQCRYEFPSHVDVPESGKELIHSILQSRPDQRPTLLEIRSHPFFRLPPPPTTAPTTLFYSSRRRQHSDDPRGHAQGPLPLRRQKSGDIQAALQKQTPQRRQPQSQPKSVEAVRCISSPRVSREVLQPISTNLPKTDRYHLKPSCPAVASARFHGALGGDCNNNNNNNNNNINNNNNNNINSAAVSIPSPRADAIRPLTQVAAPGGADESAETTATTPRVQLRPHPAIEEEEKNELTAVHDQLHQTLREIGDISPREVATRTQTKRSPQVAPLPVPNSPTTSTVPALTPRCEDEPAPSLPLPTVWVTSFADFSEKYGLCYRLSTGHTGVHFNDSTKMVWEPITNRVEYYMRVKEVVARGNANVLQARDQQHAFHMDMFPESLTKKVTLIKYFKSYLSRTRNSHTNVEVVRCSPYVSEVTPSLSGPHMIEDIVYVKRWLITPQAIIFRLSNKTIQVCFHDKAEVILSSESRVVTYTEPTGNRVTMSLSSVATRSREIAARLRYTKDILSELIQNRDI
Format: biochemical

Cc1cccc(Cc2nn(C(C)(C)C)c3ncnc(N)c23)c1 [3MB-PP1]
IC50: ~0.25 µM

Source: PMC3639044 (Molecular Biology of the Cell, 2013)
